In PubChem BioAssay AID1963838 (Molecular Pharmacology Branch, DTP, NCI, 2024):

Tested on: 855422-203-R-J1-PDC complex spheroid viability
Assay: Anticancer human tumor 855422-203-R-J1-PDC patient-derived bladder carcinoma cell line growth inhibition [POLQ]
Conditions: for IC50: curve of first compound; for viability, T/C: stronger effect = lower value
In short: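 PDC + HUVEC + MSC complex spheroids; POLQ inhibitors ± partner drugs; top conc. at/near clinical Cmax, else 10 microM (SN-38 1 microM), half-log dilutions; 37 degrees C, 5% CO2.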

[1] = second compound 0.0316 µM, first compound 0.0316 µM
[2] = second compound 0.0316 µM, first compound 0.1 µM
[3] = second compound 0.0316 µM, first compound 0.316 µM
[4] = second compound 0.0316 µM, first compound 1 µM
[5] = second compound 0.0316 µM, first compound 3.16 µM
[6] = second compound 0.0316 µM, first compound 10 µM
[7] = second compound 0.1 µM, first compound 0.0316 µM
[8] = second compound 0.1 µM, first compound 0.1 µM
[9] = second compound 0.1 µM, first compound 0.316 µM
[10] = second compound 0.1 µM, first compound 1 µM
[11] = second compound 0.1 µM, first compound 3.16 µM
[12] = second compound 0.1 µM, first compound 10 µM
[13] = second compound 0.316 µM, first compound 0.0316 µM
[14] = second compound 0.316 µM, first compound 0.1 µM
[15] = second compound 0.316 µM, first compound 0.316 µM
[16] = second compound 0.316 µM, first compound 1 µM
[17] = second compound 0.316 µM, first compound 3.16 µM
[18] = second compound 0.316 µM, first compound 10 µM
[19] = second compound 1 µM, first compound 0.0316 µM
[20] = second compound 1 µM, first compound 0.1 µM
[21] = second compound 1 µM, first compound 0.316 µM
[22] = second compound 1 µM, first compound 1 µM
[23] = second compound 1 µM, first compound 3.16 µM
[24] = second compound 1 µM, first compound 10 µM
[25] = second compound 3.16 µM, first compound 0.0316 µM
[26] = second compound 3.16 µM, first compound 0.1 µM
[27] = second compound 3.16 µM, first compound 0.316 µM
[28] = second compound 3.16 µM, first compound 1 µM
[29] = second compound 3.16 µM, first compound 3.16 µM
[30] = second compound 3.16 µM, first compound 10 µM
[31] = second compound 10 µM, first compound 0.0316 µM
[32] = second compound 10 µM, first compound 0.1 µM
[33] = second compound 10 µM, first compound 0.316 µM
[34] = second compound 10 µM, first compound 1 µM
[35] = second compound 10 µM, first compound 3.16 µM
[36] = second compound 10 µM, first compound 10 µM
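Further: spheroids exposed to compounds for seven days before readout.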

## COc1cc2cc(C(=O)CCC(=O)O)sc2cc1OC + COC1C(OC(N)=O)C(O)C(Oc2ccc3c(O)c(NC(=O)c4ccc(O)c(CC=C(C)C)c4)c(=O)oc3c2C)OC1(C)C
Second compound 0.0316 µM
  IC50: > 10 µM
Second compound 0.1 µM
  IC50: > 10 µM
Second compound 0.316 µM
  IC50: > 10 µM
Second compound 1 µM
  IC50: > 10 µM
Second compound 3.16 µM
  IC50: > 10 µM
Second compound 10 µM
  IC50: > 10 µM
[1]
  viability, T/C: 105%
[2]
  viability, T/C: 97.2%
[3]
  viability, T/C: 115%
[4]
  viability, T/C: 106%
[5]
  viability, T/C: 99.8%
[6]
  viability, T/C: 101%
[7]
  viability, T/C: 83.2%
[8]
  viability, T/C: 111%
[9]
  viability, T/C: 105%
[10]
  viability, T/C: 98.8%
[11]
  viability, T/C: 111%
[12]
  viability, T/C: 88.2%
[13]
  viability, T/C: 115%
[14]
  viability, T/C: 101%
[15]
  viability, T/C: 110%
[16]
  viability, T/C: 106%
[17]
  viability, T/C: 113%
[18]
  viability, T/C: 101%
[19]
  viability, T/C: 104%
[20]
  viability, T/C: 105%
[21]
  viability, T/C: 90.5%
[22]
  viability, T/C: 109%
[23]
  viability, T/C: 99.5%
[24]
  viability, T/C: 94.6%
[25]
  viability, T/C: 98%
[26]
  viability, T/C: 102%
[27]
  viability, T/C: 110%
[28]
  viability, T/C: 111%
[29]
  viability, T/C: 114%
[30]
  viability, T/C: 86.4%
[31]
  viability, T/C: 104%
[32]
  viability, T/C: 107%
[33]
  viability, T/C: 105%
[34]
  viability, T/C: 104%
[35]
  viability, T/C: 95.7%
[36]
  viability, T/C: 82.8%

## CNCc1ccc(-c2[nH]c3cc(F)cc4c3c2CCNC4=O)cc1 + COC1C(OC(N)=O)C(O)C(Oc2ccc3c(O)c(NC(=O)c4ccc(O)c(CC=C(C)C)c4)c(=O)oc3c2C)OC1(C)C
Second compound 0.0316 µM
  IC50: > 10 µM
Second compound 0.1 µM
  IC50: > 10 µM
Second compound 0.316 µM
  IC50: > 10 µM
Second compound 1 µM
  IC50: > 10 µM
Second compound 3.16 µM
  IC50: > 10 µM
Second compound 10 µM
  IC50: > 10 µM
[1]
  viability, T/C: 93.5%
[2]
  viability, T/C: 104%
[3]
  viability, T/C: 125%
[4]
  viability, T/C: 106%
[5]
  viability, T/C: 107%
[6]
  viability, T/C: 105%
[7]
  viability, T/C: 110%
[8]
  viability, T/C: 108%
[9]
  viability, T/C: 98%
[10]
  viability, T/C: 109%
[11]
  viability, T/C: 100%
[12]
  viability, T/C: 110%
[13]
  viability, T/C: 91.3%
[14]
  viability, T/C: 97.8%
[15]
  viability, T/C: 99.5%
[16]
  viability, T/C: 104%
[17]
  viability, T/C: 105%
[18]
  viability, T/C: 118%
[19]
  viability, T/C: 104%
[20]
  viability, T/C: 107%
[21]
  viability, T/C: 110%
[22]
  viability, T/C: 107%
[23]
  viability, T/C: 117%
[24]
  viability, T/C: 104%
[25]
  viability, T/C: 106%
[26]
  viability, T/C: 92%
[27]
  viability, T/C: 112%
[28]
  viability, T/C: 109%
[29]
  viability, T/C: 104%
[30]
  viability, T/C: 109%
[31]
  viability, T/C: 110%
[32]
  viability, T/C: 101%
[33]
  viability, T/C: 111%
[34]
  viability, T/C: 106%
[35]
  viability, T/C: 93.2%
[36]
  viability, T/C: 97.4%

## CNCc1ccc(-c2[nH]c3cc(F)cc4c3c2CCNC4=O)cc1 + Cc1cccc(N(C)C(=O)C2C(O)CCN2c2nc(C)cc(C(F)(F)F)c2C#N)c1
Second compound 0.0316 µM
  IC50: > 10 µM
Second compound 0.1 µM
  IC50: > 10 µM
Second compound 0.316 µM
  IC50: > 10 µM
Second compound 1 µM
  IC50: > 10 µM
Second compound 3.16 µM
  IC50: > 10 µM
Second compound 10 µM
  IC50: > 10 µM
[1]
  viability, T/C: 115%
[2]
  viability, T/C: 101%
[3]
  viability, T/C: 99.2%
[4]
  viability, T/C: 104%
[5]
  viability, T/C: 114%
[6]
  viability, T/C: 108%
[7]
  viability, T/C: 101%
[8]
  viability, T/C: 101%
[9]
  viability, T/C: 90.5%
[10]
  viability, T/C: 107%
[11]
  viability, T/C: 111%
[12]
  viability, T/C: 106%
[13]
  viability, T/C: 107%
[14]
  viability, T/C: 115%
[15]
  viability, T/C: 112%
[16]
  viability, T/C: 103%
[17]
  viability, T/C: 113%
[18]
  viability, T/C: 120%
[19]
  viability, T/C: 101%
[20]
  viability, T/C: 105%
[21]
  viability, T/C: 101%
[22]
  viability, T/C: 103%
[23]
  viability, T/C: 114%
[24]
  viability, T/C: 105%
[25]
  viability, T/C: 112%
[26]
  viability, T/C: 108%
[27]
  viability, T/C: 118%
[28]
  viability, T/C: 98.8%
[29]
  viability, T/C: 108%
[30]
  viability, T/C: 111%
[31]
  viability, T/C: 110%
[32]
  viability, T/C: 95.6%
[33]
  viability, T/C: 100%
[34]
  viability, T/C: 104%
[35]
  viability, T/C: 116%
[36]
  viability, T/C: 107%

## CC(C)n1c(=O)n(C)c2cnc3cc(F)c(-c4ccc(OCCCN5CCCCC5)nc4)cc3c21 + COC1C(OC(N)=O)C(O)C(Oc2ccc3c(O)c(NC(=O)c4ccc(O)c(CC=C(C)C)c4)c(=O)oc3c2C)OC1(C)C
Second compound 0.0316 µM
  IC50: > 10 µM
Second compound 0.1 µM
  IC50: > 10 µM
Second compound 0.316 µM
  IC50: > 10 µM
Second compound 1 µM
  IC50: > 10 µM
Second compound 3.16 µM
  IC50: > 10 µM
Second compound 10 µM
  IC50: > 10 µM
[1]
  viability, T/C: 97.6%
[2]
  viability, T/C: 92.7%
[3]
  viability, T/C: 89.8%
[4]
  viability, T/C: 89.1%
[5]
  viability, T/C: 84.7%
[6]
  viability, T/C: 70.3%
[7]
  viability, T/C: 84.4%
[8]
  viability, T/C: 110%
[9]
  viability, T/C: 88.1%
[10]
  viability, T/C: 91.9%
[11]
  viability, T/C: 79.6%
[12]
  viability, T/C: 75.3%
[13]
  viability, T/C: 92.6%
[14]
  viability, T/C: 100%
[15]
  viability, T/C: 89.8%
[16]
  viability, T/C: 102%
[17]
  viability, T/C: 87.8%
[18]
  viability, T/C: 65.9%
[19]
  viability, T/C: 104%
[20]
  viability, T/C: 104%
[21]
  viability, T/C: 96.2%
[22]
  viability, T/C: 98.1%
[23]
  viability, T/C: 81.2%
[24]
  viability, T/C: 74%
[25]
  viability, T/C: 106%
[26]
  viability, T/C: 95%
[27]
  viability, T/C: 98.2%
[28]
  viability, T/C: 79.1%
[29]
  viability, T/C: 83.5%
[30]
  viability, T/C: 69.7%
[31]
  viability, T/C: 104%
[32]
  viability, T/C: 92.5%
[33]
  viability, T/C: 93.9%
[34]
  viability, T/C: 98.1%
[35]
  viability, T/C: 83%
[36]
  viability, T/C: 68.7%
